Measured values taken from patent publication US7033829B2, “Method to inhibit cell growth using oligonucleotides” (Trustees of Boston University, priority 2000, dated 2006).

Key:
[1] = system: Human squamous carcinoma cell line SCC12F cells; test: Cell growth / cell yield of SCC12F cells (Coulter counter); type: cell-based; conditions: 100 μM; days 1, 3, 4, 5 after dosage
Protocol: Human squamous carcinoma cell line SCC12F cells were maintained in primary keratinocyte medium (300 ml DME, 100 ml F-12 nutrient supplement, 50 ml 10× adenine, 50 ml fetal bovine serum, 5 ml penicillin/streptomycin stock, and 0.5 ml of 10 μg/ml epidermal growth factor and hydrocortisone to final concentration of 1.4 μg/ml) and dosed with either water (diluent), 100 μM pTpT (T2, Midland Certified Reagent Company, Midland, Tex.) or 100 μM pdApdA (A2). Cells were harvested before dosing (day 0), and 1, 3, 4, and 5 days after dosage, and were counted by Coulter™ counter. After harvesting, the cells were processed for total RNA isolation and were analyzed by Northern blot. Addition of a control deoxyadenine dinucleotide (pdApdA), a compound very similar to pTpT but not readily dimerized by UV irradiation, and therefore rarely excised during the course of UV-induced DNA repair, has no effect.
In a second experiment, SCC12F cells were cultured as described above. Two or three days after seeding, the preconfluent cultures were given fresh medium supplemented with either 100 μM T2 or diluent as a control. Cells were collected daily by trypsinization and counted by Coulter™ counter. The cell yield in cultures treated with T2 was reduced by […] compared to that of paired control cultures after five days (FIG. 2). This corresponds to 2.3 population doublings in this time for control cells, compared with 1 doubling for T2-treated cells.
pTpT was previously found to inhibit cell cycle progression, at least in part through activation of p53 and subsequent upregulation of the cyclin dependent kinase inhibitor p21. Cultures of the human keratinocyte line SCC12F were treated with pTpT, SEQ ID NO: 1, SEQ ID NO: 6 or diluent alone as a negative control, collected and counted 48 hours later and processed for northern blot analysis of p21 mRNA expression. […] Thus, the sequences of the present invention activate p53 and inhibit cell proliferation similar to the effect of pTpT.
Exposure of keratinocytes to UVB irradiation affects the expression of genes involved in cell cycle arrest, DNA repair and cytokine production. Single-stranded oligonucleotides sharing sequence homology with the telomere 3′ overhang, when introduced into cells, mimic these UV effects. To identify other genes that may be similarly modulated, cells of keratinocyte origin (SCC12F; a human epidermal squamous cell carcinoma line provided by Dr. James Rheinwald of Harvard University) were exposed to solar simulated irradiation (SSR) (20 mJ/cm^2, measured at 285±5 nm), to an 11-base oligonucleotide (pGTTAGGGTTAG; SEQ ID NO:5) homologous to the telomere overhang (T-oligo), or to a complementary sequence as control [pCTAACCCTAAC; (SEQ ID NO:9) control oligonucleotide]. […] These are mitochondrial-transcribed genes whose encoded proteins participate in cellular respiration.

[2] = system: GADD 45, ERCC 3 and SDI 1 mRNA; test: Northern blot of GADD 45, ERCC 3 and SDI 1 in SCC12F cells; type: cell-based, human; conditions: 100 μM; as early as 24 hours, several days
Protocol: Paired cultures of SCC12F cells were maintained in a Dulbecco's modified Eagle's Medium-based keratinocyte growth medium (DMEM; GIBCO/BRL, Gaithersburg, Md.) supplemented with 10% fetal calf serum (Hyclone Labs, Logan, Utah) and epidermal growth factor as described (Hollander, M. C. et al., J. Biol. Chem. 268:328–336 (1992)). Pre-confluent cultures were given fresh medium supplemented with either 100 μM T2, or an equal volume of diluent. Cells were collected daily after additions, and processed for total RNA isolation using the Tri-Reagent extraction method (Molecular Research Center, Cincinnati, Ohio) following the protocol of the manufacturer. Ten micrograms of RNA from each sample was gel electrophoresed, transferred to a nylon filter and probed as described previously (Nada, A. et al., Exp. Cell Res. 211:90–98 (1994)). The cDNA for GADD 45 was generated by PCR using primers based on the human GADD 45 gene sequence (Mitsudomi, T. et al., Oncogene 7:171–180 (1992)). The cDNA for ERCC 3 was purchased from the American Type Culture Collection (ATCC, Rockville, Md.). The SDI 1 cDNA was a gift of Dr. J. Smith and has been described previously (Walworth, N.C. and Bernards, R., Science 271:353–356 (1996)).

contact hypersensitivity = test: Contact hypersensitivity to DNFB (ear swelling); type: in vivo, C57B16 mice; conditions: 30 μl of 100 μM BID×5d topical to abdominal skin before sensitization
Protocol: C57B16 mice were subjected to the following treatment prior to sensitization with the allergen DNFB, by topical administration to abdominal skin; no pretreatment, UVB irradiation (200 J/m^2/dx4d), pTpT, pApA, or vehicle alone (30 μl of 100 μM BID×5d).

TNF-α gene = test: TNFα promoter CAT reporter transgene in skin; type: in vivo, mice; conditions: intracutaneous pTpT 100 μM; LPS 1 μg/ml
Protocol: In another experiment, TNF-α gene activation was measured by utilizing mice carrying a CAT reporter transgene bearing the entire TNFα promoter and 3′-untranslated region. Transgenic mice were subjected to the following treatment prior to skin assay for CAT expression: UVB irradiation (200–700 J/m^2), intracutaneous injection of pTpT (100 μM); lipopolysaccharide (LPS 1 μg/ml) as positive control, or vehicle alone.

Row | Substance | cell growth rate [1] | mRNAs for GADD 45, ERCC 3 and SDI 1 [2] | ear swelling responses to DNFB challenge (contact hypersensitivity) | CAT activity in skin (TNF-α gene)
1 | deoxyadenine dinucleotide [pdApdA, reference compound] | has no effect | less effective or ineffective | 2.5±0.6 | 
2 | lipopolysaccharide [LPS, reference compound] |  |  |  | CAT activity was detected
